# Data published in publication PMC2788670 (Journal of medicinal chemistry, 2009).
# “Also recorded” adds a separate entry of the source.
# Experiments:
# Format in all cases: cell-based
# HIV-2 KR.X3 = HIV-2 KR.X3 single-round infection assay in TZM-bl cells; settings: for IC50 (µM) HIV-2 KR.X3: TZM-bl cells, 200 TCID50, 2 days, luciferase, average of 3 independent experiments, Inactive = TC50/IC50 < 2; for reduction of anti-HIV-2 activity after glycine addition compared to precursor: 13 versus 8, 14 versus 9
# HIV-1 NL4-3 = HIV-1 NL4-3 single-round infection assay in TZM-bl cells; settings: 200 TCID50, 2 days, luciferase, average of 3 independent experiments, Inactive = TC50/IC50 < 2
# HIV-2 KR.X3-YU-2/V3 = HIV-2 KR.X3-YU-2/V3 chimeric virus infection assay in TZM-bl cells; settings: chimeric virus with V3 loop of HIV-1 YU-2; Figure 1, 4 independent experiments
compound,measurement,setting,value
"C=C(C)[C@@H]1CC[C@]2(C(=O)O)CC[C@]3(C)[C@H](CC[C@@H]4[C@@]5(C)CC[C@H](O)C(C)(C)[C@@H]5CC[C@]43C)[C@@H]12 [Compound 1, Betulinic acid, reference compound]",IC50 (µM) HIV-2 KR.X3,HIV-2 KR.X3,did not exhibit anti-HIV-1 or anti-HIV-2 activity; also recorded: Inactive
same,IC50 (µM) HIV-1 NL4-3,HIV-1 NL4-3,did not exhibit anti-HIV-1 or anti-HIV-2 activity; also recorded: Inactive
C=C(C)[C@@H]1CC[C@]2(C(=O)NCCCCCNC(C)=O)CC[C@]3(C)[C@H](CC[C@@H]4[C@@]5(C)CC[C@H](O)C(C)(C)[C@@H]5CC[C@]43C)[C@@H]12 [Compound 2],IC50 (µM) HIV-2 KR.X3,HIV-2 KR.X3,Inactive
same,IC50 (µM) HIV-1 NL4-3,HIV-1 NL4-3,Inactive
C=C(C)[C@@H]1CC[C@]2(C(=O)NCCCCCCNC(C)=O)CC[C@]3(C)[C@H](CC[C@@H]4[C@@]5(C)CC[C@H](O)C(C)(C)[C@@H]5CC[C@]43C)[C@@H]12 [Compound 3],IC50 (µM) HIV-2 KR.X3,HIV-2 KR.X3,completely inactive
"C=C(C)[C@@H]1CC[C@]2(C(=O)NCCCCCCCNC(C)=O)CC[C@]3(C)[C@H](CC[C@@H]4[C@@]5(C)CC[C@H](O)C(C)(C)[C@@H]5CC[C@]43C)[C@@H]12 [Compound 4, [[N-[3β-hydroxyl-lup-20(29)-en-28-oyl]-7-aminoheptyl]-carbamoyl]methane]",IC50 (µM) HIV-2 KR.X3,HIV-2 KR.X3,Inactive
C=C(C)[C@@H]1CC[C@]2(C(=O)NCCCCCCCCNC(C)=O)CC[C@]3(C)[C@H](CC[C@@H]4[C@@]5(C)CC[C@H](O)C(C)(C)[C@@H]5CC[C@]43C)[C@@H]12 [Compound 5],IC50 (µM) HIV-2 KR.X3,HIV-2 KR.X3,Inactive
C=C(C)[C@@H]1CC[C@]2(C(=O)NCCCCCCNC(=O)CC(=O)O)CC[C@]3(C)[C@H](CC[C@@H]4[C@@]5(C)CC[C@H](O)C(C)(C)[C@@H]5CC[C@]43C)[C@@H]12 [Compound 6],IC50 (µM) HIV-2 KR.X3,HIV-2 KR.X3,Inactive
C=C(C)[C@@H]1CC[C@]2(C(=O)NCCCC(=O)O)CC[C@]3(C)[C@H](CC[C@@H]4[C@@]5(C)CC[C@H](O)C(C)(C)[C@@H]5CC[C@]43C)[C@@H]12 [Compound 7],IC50 (µM) HIV-1 NL4-3,HIV-1 NL4-3,Inactive
C=C(C)[C@@H]1CC[C@]2(C(=O)NCCCCCCCC(=O)O)CC[C@]3(C)[C@H](CC[C@@H]4[C@@]5(C)CC[C@H](O)C(C)(C)[C@@H]5CC[C@]43C)[C@@H]12 [Compound 11],IC50 (µM) HIV-2 KR.X3,HIV-2 KR.X3,Inactive
C=C(C)[C@@H]1CC[C@]2(C(=O)NCCCC(=O)NCC(=O)O)CC[C@]3(C)[C@H](CC[C@@H]4[C@@]5(C)CC[C@H](O)C(C)(C)[C@@H]5CC[C@]43C)[C@@H]12 [Compound 12],IC50 (µM) HIV-1 NL4-3,HIV-1 NL4-3,Inactive
C=C(C)[C@@H]1CC[C@]2(C(=O)NCCCCC(=O)NCC(=O)O)CC[C@]3(C)[C@H](CC[C@@H]4[C@@]5(C)CC[C@H](O)C(C)(C)[C@@H]5CC[C@]43C)[C@@H]12 [Compound 13],reduction of anti-HIV-2 activity after glycine addition compared to precursor,HIV-2 KR.X3,approximately 15 fold
same,IC50 (µM) HIV-1 NL4-3,HIV-1 NL4-3,Inactive
C=C(C)[C@@H]1CC[C@]2(C(=O)NCCCCCC(=O)NCC(=O)O)CC[C@]3(C)[C@H](CC[C@@H]4[C@@]5(C)CC[C@H](O)C(C)(C)[C@@H]5CC[C@]43C)[C@@H]12 [Compound 14],reduction of anti-HIV-2 activity after glycine addition compared to precursor,HIV-2 KR.X3,approximately 2 fold
same,HIV-2 KR.X3-YU-2/V3 less sensitive compared to HIV-2 KR.X3,HIV-2 KR.X3-YU-2/V3,approximately 5 fold
"C=C(C)[C@@H]1CC[C@]2(C(=O)NCCCCCCCC(=O)N[C@@H](CC(C)C)[C@H](O)CC(=O)O)CC[C@]3(C)[C@H](CC[C@@H]4[C@@]5(C)CC[C@H](O)C(C)(C)[C@@H]5CC[C@]43C)[C@@H]12 [Compound 17, reference compound]",anti-HIV-2 activity less potent than its anti-HIV-1 activity,HIV-2 KR.X3; HIV-2 KR.X3 versus HIV-1 NL4-3,about 70 times
C=C(C)[C@@H]1CC[C@]2(C(=O)NCCCCCC(=O)N[C@@H](Cc3ccc(O)cc3)C(=O)O)CC[C@]3(C)[C@H](CC[C@@H]4[C@@]5(C)CC[C@H](O)C(C)(C)[C@@H]5CC[C@]43C)[C@@H]12 [Compound 19],IC50 (µM) HIV-1 NL4-3,HIV-1 NL4-3,Inactive
C=C(C)[C@@H]1CC[C@]2(C(=O)NCCCCCC(=O)NCC(=O)NCC(=O)O)CC[C@]3(C)[C@H](CC[C@@H]4[C@@]5(C)CC[C@H](O)C(C)(C)[C@@H]5CC[C@]43C)[C@@H]12 [Compound 21],less potent against HIV-2 than 9,HIV-2 KR.X3,approximately 10 fold
"C=C(C)[C@@H]1CC[C@]2(C(=O)O)CC[C@]3(C)[C@H](CC[C@@H]4[C@@]5(C)CC[C@H](OC(=O)CC(C)(C)C(=O)O)C(C)(C)[C@@H]5CC[C@]43C)[C@@H]12 [Compound 22, 3-O-(3’,3’-dimethylsuccinyl)-betulinic acid, reference compound]",IC50 (µM) HIV-2 KR.X3,HIV-2 KR.X3,did not inhibit HIV-2 replication; also recorded: Inactive
